Assay results: publication PMC11167517, “Synthesis, computational docking and molecular dynamics studies of a new class of spiroquinoxalinopyrrolidine embedded chromanone hybrids as potent anti-cholinesterase agents” (RSC Advances, 2024)

Columns and labels:
[1] = target: T1, butyrylcholine esterase from equine serum (BChE) (Equus caballus, UniProt P81908); test: biochemical; conditions: for BChE selectivity: IC50(AChE)/IC50(BChE); for IC50: in vitro, triplicate, read-out: BChE inhibition IC50 μM (±SD)
T1 construct: esterase from equine serum; from tissue; host or cells: equine serum
Procedure: (§1) Acetylcholine is an important neurotransmitter involved in memory and cognition.[34] The enzymes AChE and BChE act on these neurotransmitters and degrade them to attenuate acetylcholine-mediated effects.[35] In neurodegenerative diseases, a reduced acetyl choline level is detrimental, leading to impaired memory and cognition.[36] […]
(§2) of test samples and 20 µL of 0.09 units/mL acetylcholinesterase enzyme. After 15 min. of incubation at 25 °C, 10 µL of 10 mM 5,50 -dithiobis-2-nitrobenzoic acid (DTNB) was added into each well followed by 10 µL of 14 mM acetylthiocholine iodide. Thirty minutes after the initiation of enzymatic reaction, absorbance of the colored end-product was measured using BioTek Power Wave X 340 Microplate Spectrophotometer at 412 nm. For butyrylcholinesterase (BuChE) inhibitory assay, the same procedure described above was followed, except for the use of enzyme and substrate, instead of which, butyrylcholine esterase from equine serum and S-butyrylthiocholine chloride were used. IC50 value was calculated by standard protocol Each test was conducted in triplicate. Absorbance of the test samples was corrected by subtracting the absorbance of their respective blank. Percentage inhibition was calculated using […]
(§3) Absorbance of control Absorbance of Sample
(§4) Percentage of inhibition = X 100
(§5) Selectivity for AChE defined as IC 50(BChE)/IC50(AChE).
(§6) Selectivity for BChE defined as IC 50(AChE)/IC50(BChE). […]

[2] = target: acetylcholinesterase (AChE) (Electrophorus electricus, UniProt O42275); test: In vitro acetylcholinesterase inhibitory assay (DTNB/acetylthiocholine iodide, absorbance at 412 nm); format: biochemical; conditions: IC50(BChE)/IC50(AChE)
Procedure: as §1, §2, §3, §4, §5, §6

Sequence of acetylcholinesterase (AChE) (O42275 24-633): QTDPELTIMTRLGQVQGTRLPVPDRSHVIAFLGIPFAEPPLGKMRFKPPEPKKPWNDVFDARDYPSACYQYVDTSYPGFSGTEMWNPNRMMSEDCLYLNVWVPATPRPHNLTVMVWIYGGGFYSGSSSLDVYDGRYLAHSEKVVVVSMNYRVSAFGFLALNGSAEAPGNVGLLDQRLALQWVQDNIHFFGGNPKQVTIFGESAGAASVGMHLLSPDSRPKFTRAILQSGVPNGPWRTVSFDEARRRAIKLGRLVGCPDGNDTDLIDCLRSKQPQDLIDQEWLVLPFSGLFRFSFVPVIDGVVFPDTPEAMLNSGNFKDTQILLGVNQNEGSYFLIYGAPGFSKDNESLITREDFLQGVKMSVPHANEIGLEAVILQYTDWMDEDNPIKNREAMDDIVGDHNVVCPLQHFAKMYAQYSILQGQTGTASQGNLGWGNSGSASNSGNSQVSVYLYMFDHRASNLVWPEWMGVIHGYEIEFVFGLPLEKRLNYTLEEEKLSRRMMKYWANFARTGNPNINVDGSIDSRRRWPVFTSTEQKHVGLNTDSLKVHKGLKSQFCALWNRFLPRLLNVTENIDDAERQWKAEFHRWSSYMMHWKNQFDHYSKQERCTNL
T1 sequence (P81908 whole entry): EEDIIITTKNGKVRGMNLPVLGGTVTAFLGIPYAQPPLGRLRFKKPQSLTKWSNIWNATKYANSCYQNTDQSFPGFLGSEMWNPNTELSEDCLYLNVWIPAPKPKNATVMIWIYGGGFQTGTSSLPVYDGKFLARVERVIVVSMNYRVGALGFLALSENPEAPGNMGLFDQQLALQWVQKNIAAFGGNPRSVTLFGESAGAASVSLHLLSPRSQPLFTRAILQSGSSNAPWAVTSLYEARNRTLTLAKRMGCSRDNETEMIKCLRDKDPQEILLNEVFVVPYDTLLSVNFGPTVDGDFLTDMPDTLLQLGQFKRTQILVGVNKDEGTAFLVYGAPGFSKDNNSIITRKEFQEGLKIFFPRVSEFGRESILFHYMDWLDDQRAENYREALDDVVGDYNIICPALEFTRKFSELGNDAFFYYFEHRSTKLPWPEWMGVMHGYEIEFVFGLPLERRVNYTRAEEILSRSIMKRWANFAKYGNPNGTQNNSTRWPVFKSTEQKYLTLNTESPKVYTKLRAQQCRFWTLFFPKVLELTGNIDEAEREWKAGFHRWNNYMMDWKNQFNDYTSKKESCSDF

SMILES	BChE selectivity [1]	IC50 [1]	AChE selectivity [2]
O=C1c2ccccc2OC[C@@]12[C@H](c1ccccc1)[C@@H](Cc1ccccc1)NC21c2ccccc2-c2nc3ccccc3nc21 (stereo partly drawn) [Compound 5a]	0.79	28.12 ± 0.25 µM	1.27
O=C1c2ccccc2OC[C@@]12[C@H](c1ccc(Br)cc1)[C@@H](Cc1ccccc1)NC21c2ccccc2-c2nc3ccccc3nc21 (stereo partly drawn) [Compound 5b]	0.76	24.12 ± 0.16 µM	1.32
O=C1c2ccccc2OCC12C(c1ccccc1Cl)C(Cc1ccccc1)NC21c2ccccc2-c2nc3ccccc3nc21 (stereo not drawn) [Compound 5c, 5-Benzyl-4-(2-chlorophenyl)-2-spiro[2,6′′]indenoquinoxalino-3-spiro[3,3′]-chromanonopyrrolidine]	0.20	22.16 ± 0.14 µM	4.92
O=C1c2ccccc2OC[C@@]12[C@H](c1ccc(Cl)cc1)[C@@H](Cc1ccccc1)NC21c2ccccc2-c2nc3ccccc3nc21 (stereo partly drawn) [Compound 5d]	0.37	21.02 ± 0.18 µM	2.72
O=C1c2ccccc2OC[C@@]12[C@H](c1ccccc1F)[C@@H](Cc1ccccc1)NC21c2ccccc2-c2nc3ccccc3nc21 (stereo partly drawn) [Compound 5e]	0.26	20.2 ± 0.24 µM	3.83
O=C1c2ccccc2OC[C@@]12[C@H](c1ccc(F)cc1)[C@@H](Cc1ccccc1)NC21c2ccccc2-c2nc3ccccc3nc21 (stereo partly drawn) [Compound 5f]	0.18	18.14 ± 0.06 µM	5.67
Cc1ccc([C@@H]2[C@@H](Cc3ccccc3)NC3(c4ccccc4-c4nc5ccccc5nc43)[C@]23COc2ccccc2C3=O)cc1 (stereo partly drawn) [Compound 5g]	0.72	29.8 ± 0.12 µM	1.38
COc1cccc([C@@H]2[C@@H](Cc3ccccc3)NC3(c4ccccc4-c4nc5ccccc5nc43)[C@]23COc2ccccc2C3=O)c1 (stereo partly drawn) [Compound 5h]	0.80	30.15 ± 0.1 µM	1.25
COc1ccc([C@@H]2[C@@H](Cc3ccccc3)NC3(c4ccccc4-c4nc5ccccc5nc43)[C@]23COc2ccccc2C3=O)cc1 (stereo partly drawn) [Compound 5i]	0.77	29.18 ± 0.12 µM	1.29
O=C1c2ccccc2OC[C@@]12[C@H](c1cccc([N+](=O)[O-])c1)[C@@H](Cc1ccccc1)NC21c2ccccc2-c2nc3ccccc3nc21 (stereo partly drawn) [Compound 5j]	0.52	20.16 ± 0.2 µM	1.93
